This note sets out measurements from patent publication US20070117804A1, “Imidazopyrazines as protein kinase inhibitors” (Schering Corporation, priority 2005, published 2007).

Structures are written as SMILES.

For one assay, the target named is T1, Cyclin E/CDK2 (Homo sapiens, UniProt P24941).
T1 construct: made in house; host or cells: SF9 insect cells, baculovirus co-infection
Nature of the assay: CDK2 assay (Cyclin E/CDK2 in vitro kinase SPA assay, biotinylated Histone H1 peptide). The class given is biochemical. Conditions: read-out: CDK2 IC 50.

The target in the next assay is T2, His-CHK1 (Homo sapiens, UniProt O14757).
T2 sequence (O14757 1-265 limits assumed): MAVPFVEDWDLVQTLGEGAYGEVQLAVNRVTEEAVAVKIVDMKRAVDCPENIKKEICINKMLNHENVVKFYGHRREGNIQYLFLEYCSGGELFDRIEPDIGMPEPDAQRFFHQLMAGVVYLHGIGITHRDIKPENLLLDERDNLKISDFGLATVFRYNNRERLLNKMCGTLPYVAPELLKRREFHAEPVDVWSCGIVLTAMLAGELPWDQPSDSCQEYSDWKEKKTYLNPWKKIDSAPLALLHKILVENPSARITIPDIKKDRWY
As to the kind of experiment: CHK1 SPA assay (recombinant His-CHK1, biotinylated CDC25C peptide, 33P-ATP).

Turning to `Cn1cc(-c2cnc3c(Nc4ccns4)nc(CCN)cn23)cn1`, the results for the IC50 at Cyclin E/CDK2 and at His-CHK1 were 0.55 µM and 0.017 µM, respectively.
Regarding `CCN(CC)S(=O)(=O)c1sc(Nc2nc(C3=CCCNC3)cn3c(-c4cnn(C)c4)cnc23)cc1C`, at Cyclin E/CDK2, the IC50 was determined as 8.28 µM.
In the case of `Cc1cc(Nc2nc(C3=CCCNC3)cn3c(-c4cnn(C)c4)cnc23)sc1S(=O)(=O)N1CCOCC1`, the IC50 on Cyclin E/CDK2 came to 6.95 µM.
